# In US8497267B2, “Method for treating a sleep disorder with a dosage form of besylate salts of zopiclone or eszopiclone” (Sunovion Pharmaceuticals Inc., priority 2007, dated 2013):
# Key:
# [1] = Aqueous solubility (24 hour equilibrated suspension in water, HPLC); type: physicochemical; settings: for pH measured at saturation: saturated aqueous solution
# Protocol: The aliquot was diluted and analyzed by HPLC (Waters). The data was compared to a standard curve generated from a set of solutions of known concentrations. The standard curve and the samples were analyzed using a HPLC using the following conditions: • Column: Symmetry C-18, 5 um, 15 cm×3.9 mm (Waters) • Mobile Phase: 0.05 M KH2PO4—0.01M Hexanesulfonic Acid/THF (1000:125) (Apparent pH 5.0) • Column Temp: 20-30° C. • Flow Rate: 1.0 mL/min • Wavelength: 305 nm • Run Time: 15 min (zopiclone retention time is 9.5-10 min)
# [2] = Intrinsic dissolution, USP 28 method <1087>; type: physicochemical; settings: isotonic 50 mM acetate (pH 4.5) buffer at 37° C., 50 rpm; for Intrinsic dissolution Average: average of Run 1 and Run 2
# Protocol: The intrinsic dissolution (Table 3) was determined using USP 28 method <1087> (United States Pharmacopeia, The National Formulary, USP 28, 28th edition, Rockville, […]., 2005). Preparation of each test sample was performed as per USP 28 method <1087> by weighing and transferring the material to the die cavity and compressing for 1 minute at the minimum compression pressure necessary to form a nondisintegrating compacted pellet. The dissolution media used was isotonic 50 mM acetate buffer (pH 4.5) at 37° C. and speed was set at 50 rpm. Each run was halted at 5 min, irrespective of the percent dissolved. Each salt was run in duplicate.
# [3] = water, equilibrated 24 hour at ambient
Structure (SMILES),pH measured at saturation [1],"solubility thermodynamic at 24 h [1, 3] [mg/mL]",Intrinsic dissolution Run 1 [2] [mgA/cm^2/min],Intrinsic dissolution Run 2 [2] [mgA/cm^2/min],Intrinsic dissolution Average [2] [mgA/cm^2/min],"Solubility [1, 3]"
"CN1CCN(C(=O)O[C@H]2c3nccnc3C(=O)N2c2ccc(Cl)cn2)CC1.O=S(=O)(O)c1ccccc1 [Besylate, (S)-Zopiclone Besylate]",4.4,34,3.3,2.6,2.9,–
"CN1CCN(C(=O)O[C@H]2c3nccnc3C(=O)N2c2ccc(Cl)cn2)CC1 [Free base, (S)-(6-(5-chloro-2-pyridyl)-5-[(4-methyl-1-piperazinyl)carbonyloxy]-7-oxo-6,7-dihydro-5H-pyrrolo[3,4-b]pyrazine)]",7.6,–,0.6,0.5,0.5,0.2^1 mgA/mL
